From patent publication US12435310B2, “Expansion culture method for human-derived natural killer cells by using HDAC inhibitor” (KOREA UNIVERSITY RESEARCH AND BUSINESS FOUNDATION, priority 2018, dated 2025)
Where two headings read alike, the source gives them in different places.

Experiments:
natural killer cells [1] = test: Cell counting during ex vivo expansion culture of natural killer cells (hematocytometer); type: cell-based, Human
Experimental: Human blood was collected, and then centrifuged using Ficoll (Ficoll-Paque™ PLUS, GE Healthcare) at 2500 rpm for 30 minutes, and peripheral blood mononuclear cells were isolated from the buffy coat. Thereafter, the isolated cells were co-cultured with the Jurkat cell line (Korea Cell Line Bank) and EBV-LCL cell line (Korea Cell Line Bank) (each cell line was irradiated with 100 Gy) at a peripheral blood mononuclear cell:Jurkat cell:EBV-LCL cell ratio of 1:0.5:0.5 in hRPMI medium (RPMI1640 medium (Corning) containing 10% FBS and 1% penicillin/streptomycin) in the presence of 500 U/ml of IL-2. During culture, the medium was replaced with hRPMI medium containing 500 U/ml of IL-2 once every 3 to 4 days.
In order to confirm the effect of an HDAC inhibitor on natural killer cells, the natural killer cells cultured for […] under the above-described conditions were treated with 125 nM of an HDAC inhibitor (SAHA, Sigma Aldrich, USA) once every 4 days, and the number of the cells was counted (FIG. 1A). At this time, the number of the cells was counted using a hematocytometer once every 4 days while the cells were further cultured for about 12 days, and during culture, the medium was replaced with hRPMI medium containing 500 U/ml of IL-2.

natural killer cells [2] = test: Apoptosis by annexin V/7AAD staining, flow cytometry; type: cell-based, Human; conditions: NK cells expanded 10 days, treated, further cultured 8 days (FIG. 3)
Experimental: (§1) In the same manner as in Example 1, natural killer cells expanded ex vivo for 10 days were treated with an HDAC inhibitor and further cultured for 8 days. After harvesting the cells, 5×10^5 cells were obtained and apoptosis and proliferation thereof were measured using a flow cytometer.
(§2) To measure apoptosis, cells were harvested and stained with annexin V (2.5 μl) and 7AAD (2 μl) for 15 minutes, and then the proportion of the cells stained with annexin V/7AAD was analyzed using FACS Cantoll (BD). To measure cell proliferation, PerCP-labeled CD3 mAb (Biolgend Cat No. 344814 clone SK7) and APC-labeled CD56 mAb (Biolegend Cat No. 362504 clone 5.1H11) were added to the cells and allowed to react at 4° C. for 20 minutes. For intracellular FACS, the cells were washed with FACS buffer, and analyzed by staining Ki67 in the cell nucleus with the eBioscience Foxp3/transcription factor staining buffer set (eBioscience Cat No. 00-5523-00).

natural killer cells [3] = test: Cell proliferation by Ki67 staining, flow cytometry; type: cell-based, Human; conditions: NK cells expanded 10 days, treated, further cultured 8 days (FIG. 3)
Experimental: as §1, §2

[4] = system: K562 and A375 target cancer cells; test: Cancer cell killing ability of natural killer cells, chromium release; type: cell-based, Human; conditions: K562 and A375 targets, ratio 1:1, 4 hours, versus untreated control (FIG. 4A)
Experimental: In order to examine whether the cancer cell killing ability of the natural killer cells expanded ex vivo by the method of Example 1 changes, K562 (Korea Cell Line Bank) and A375 (Korea Cell Line Bank) cells were prepared as target cancer cells, labeled with chromium for 1 hour, mixed with natural killer cells at a ratio of 1:1, and then co-cultured 37° C. After 4 hours, the supernatant was taken and the isotope value thereof was analyzed using a gamma counter.

natural killer cells [5] = test: CD107a expression and IFN-g secretion of natural killer cells, flow cytometry; type: cell-based, Human
Experimental: 2.5 μl of FITC-labeled anti-CD107a mAb was added to the cells, and Golgi stop (BD Pharmingen) was added, followed by culture at 37° C. for 5 hours. After completion of culture, PerCPp-labeled CD3 mAb (Biolgend Cat No. 344814 clone SK7) and APC-labeled CD56mAb (Biolegend Cat No. 362504 clone 5.1H11) were added to the cells and allowed to react at 4° C. for 20 minutes. For intracellular FACS, the cells were washed with FACS buffer, fixed, permeabilized using a BD Cytoperm/Cytofix kit (BD Pharmingen, San Diego, CA), stained with PE-labeled IFN-g mAb, and then analyzed by flow cytometry. As a positive control, natural killer cells treated with PMA/ionomycin were used.

NK cells [6] = conditions: Ogbomo et al., FEBS Letters 2007; cited from earlier work
NK cells [7] = conditions: cited from earlier work

For O=C(CCCCCCC(=O)Nc1ccccc1)NO [SAHA], the “number of cells compared with control group not treated with the HDAC inhibitor” value (natural killer cells [1]; NK cells cultured 6 days, then 125 nM once every 4 days, further culture about 12 days (FIG. 1B)) was “more than double”, the “number of the natural killer cells compared to conventional culture method” value (natural killer cells [1]; PBMC co-cultured with Jurkat and EBV-LCL cells for 10 days, then treated) was “increased” and the “proliferation of the NK cells by concentration” value (natural killer cells [1]; concentration of 62.5 nM (FIG. 2B)) was “the highest”. The number of cells (natural killer cells [1]; treated at an initial stage without being cultured) was “no increase”, the “number of cells by timing of treatment” value (natural killer cells [1]; treated from co-culture day 6 (FIG. 2A)) was “the highest” and the “proliferation of the NK cells (growth curve)” value (natural killer cells [1]; treated on day 0 of culture compared to treated on day 10 of culture (FIG. 1C)) was “decreased”. The “apoptosis of the natural killer cells (annexin V/7AAD)” value (natural killer cells [2]) was “inhibited”, the “proliferation of the natural killer cells (Ki67)” value (natural killer cells [3]) was “did not change” and the “proliferation of the natural killer cells (Ki67)” value (natural killer cells [3]; listed as HDAC inhibitor) was “no significant change”. For the same compound, the “cancer cell killing ability of the natural killer cells” value [4] was “did not change”, the “interferon-gamma secretion of the cells” value (natural killer cells [5]; co-cultured 10 days, then treated) was “did not change” and the “function of the natural killer cells: expression of CD107a and secretion of IFN-g” value (natural killer cells [5]; treated or not treated with the HDAC inhibitor (FIG. 4B)) was “no change”.
For CCCC(CCC)C(=O)O [valproic acid], the “proliferation of the NK cells” value (NK cells [6]) is given as “decreases” and the “cancer cell killing ability of the NK cells” value (NK cells [7]; Ogbomo et al., FEBS Letters 2007) is given as “decreases”.
In the case of O=C(CCCCCCC(=O)Nc1ccccc1)NO [vorinostat], the “cancer cell killing ability of the NK cells” value (NK cells [7]; activated NK cells, Wang et al., Biol Blood Marrow Transplant 2012) is given as “no change”.
